In article PMC6213309, “Antibacterial Activity and Mechanism of Action of Bovine Lactoferricin Derivatives with Symmetrical Amino Acid Sequences” (International Journal of Molecular Sciences, 2018):
Like-named read-outs stand apart in the source and are kept apart here. Ends that are not written are not given here.

Experiments:
HEK293 cells = assay: Cytotoxicity, MTT assay; type: cell-based, human; settings: 20–24 h
Description: The cytotoxicity of each peptide was determined in HEK293 cells using the thiazolylblue (MTT) assay as described by Zhu. Briefly, HEK293 cells were subcultured overnight in 96-well plates with 10% fetal calf serum and […] at 37 °C in 5% CO2. The cell suspension was then prepared. Two-fold serial dilutions of the peptides were prepared using DMEM. Cell suspensions were added to the plates and incubated for 20–24 h at 37 °C in a cell incubator. Next, 40 μL MTT solution was added to every well, and the plates were incubated for 4 h at 37 °C. Finally, 150 μL DMSO was added to each well, the plates were shaken for 10 min, and the absorbance was measured at 492 nm using a microplate reader.

[1] = test system: Salmonella pullorum C 7913; type: cell-based; settings: 18 h
E. coli ATCC25922 [2] = settings: for MIC in the presence of Ca2+ / MIC in the presence of Fe3+ / MIC in the presence of K+ / MIC in the presence of Mg2+ / MIC in the presence of NH4+ / MIC in the presence of Na+ / MIC in the presence of Zn2+ / MIC, Control (enzymatic stability) / MIC, Control (salt stability) / MIC, Control (thermal stability): ATCC25922, 18 h; for MIC after Trypsin: peptide treated with 1 mg/mL trypsin
Description: (§1) The antimicrobial activity of the peptides were defined as the minimum inhibitory concentrations (MIC) according to the Clinical and Laboratory Standards Institute broth microdilution method as described previously. Briefly, 50 μL two-fold serial dilutions of peptides (with final concentrations ranging from 0 μM to 256 μM) and 50 μL bacterial fluids diluted with MHB were added to 96-well microtiter plates. The plates were then incubated at 37 °C for 18 h.
We assessed the salt stability, thermal stability, and enzymatic stability of the AMPs. Briefly, E. coli ATCC25922 was selected as the test bacterium. The control group was untreated peptides. Different concentrations of salts (150 mM NaCl, 4.5 mM KCl, 6 μM NH4Cl, 1 mM MgCl2, […], 8 mM […], 2.5 mM CaCl2, and 4 mM FeCl3) were added to the incubation buffer to examine the effect of each salt on the antimicrobial activities of the peptides. AMPs were treated for 1 h at 100 °C to test the thermal stability. AMPs were also treated with trypsin, pepsin, papain, and protease K at a concentration of 1 mg/mL for 1 h at 37 °C to test enzyme stability.

E. coli UB 1005 = type: cell-based; settings: UB 1005, 18 h
Description: (§2) The antimicrobial activity of the peptides were defined as the minimum inhibitory concentrations (MIC) according to the Clinical and Laboratory Standards Institute broth microdilution method as described previously [47]. Briefly, 50 μL two-fold serial dilutions of peptides (with final concentrations ranging from 0 μM to 256 μM) and 50 μL bacterial fluids diluted with MHB were added to 96-well microtiter plates. The plates were then incubated at 37 °C for 18 h.

[3] = test system: Salmonella typhimurium C 7731; type: cell-based; settings: murium C 7731, 18 h
Description: as §2

[4] = test system: S. epidermidis ATCC 12228; type: cell-based; settings: ATCC 12228, 18 h
Description: as §2

[5] = test system: Salmonella typhimurium ATCC 14028; type: cell-based; settings: ATCC 14028, 18 h
Description: as §2

[6] = test system: Salmonella enterica subsp. CMCC 50071; settings: MHB, 37 °C, 18 h, peptides 0-256 μM, triplicate samples
Description: as §1

E. coli ATCC 25922 = type: cell-based; settings: ATCC25922, 18 h
Description: as §2

S. aureus ATCC 25923 = type: cell-based; settings: ATCC 25923, 18 h
S. aureus ATCC 29213 = type: cell-based
[7] = test system: all microbial strains in this table; assay: Geometric mean of MICs and therapeutic index; type: cell-based; settings: nine strains of Table 2
E. coli ATCC25922 [8] = assay: Flow cytometry, PI staining of membrane damage; type: cell-based; settings: 30 min, 37 °C
Description: Flow cytometry can quantify the amount of cells with membrane damage as reported previously. Briefly, E. coli ATCC 25922 grown to the logarithmic phase were centrifuged and re-suspended to an OD600 nm of 0.2 in PBS (pH 7.4). The suspensions were mixed with each peptide at 1/2× MIC or 1× MIC and incubated for 30 min at 37 °C with constant shaking (140 rpm). The cells were then harvested by centrifugation, washed three times with PBS, and incubated with Propidium Iodide (PI) at a final concentration of […] for 30 min at 4 °C. Finally, the unbound dye was removed by washing with an excess amount of PBS. The data were recorded using fluorescence-activated cell sorting (Becton Dickinson, Franklin Lakes NJ, USA).

Row | Compound | MIC [1] [µM] | MIC after Papain (E. coli ATCC25922 [2]; ATCC25922, 1 h) [µM] | MIC after Protease K (E. coli ATCC25922 [2]; ATCC25922, 1 h) [µM] | MIC following heating at 100 °C (E. coli ATCC25922 [2]; ATCC25922, 1 h) [µM] | MIC in the presence of Ca2+ (E. coli ATCC25922 [2]) [µM] | MIC in the presence of Fe3+ (E. coli ATCC25922 [2]) [µM] | MIC in the presence of K+ (E. coli ATCC25922 [2]) [µM] | MIC in the presence of Mg2+ (E. coli ATCC25922 [2]) [µM] | MIC in the presence of NH4+ (E. coli ATCC25922 [2]) [µM] | MIC in the presence of Na+ (E. coli ATCC25922 [2]) [µM] | MIC in the presence of Zn2+ (E. coli ATCC25922 [2]) [µM] | MIC, Control (enzymatic stability) (E. coli ATCC25922 [2]) [µM] | MIC, Control (salt stability) (E. coli ATCC25922 [2]) [µM] | MIC, Control (thermal stability) (E. coli ATCC25922 [2]) [µM] | MIC after Trypsin (E. coli ATCC25922 [2]; E. coli ATCC25922, 1 h, 37 °C) [µM] | MIC (E. coli UB 1005) [µM] | MIC [3] [µM] | MIC [4] [µM] | MIC [5] [µM] | MIC [6] [µM] | also measured
1 | CC[C@H](C)[C@H](NC(=O)CN)C(=O)NCC(=O)N[C@@H](C)C(=O)N[C@H](C(=O)N[C@@H](CC(C)C)C(=O)N[C@@H](CCCCN)C(=O)N[C@H](C(=O)N[C@@H](CC(C)C)C(=O)N[C@H](C(=O)N[C@H](C(=O)NCC(=O)N[C@@H](CC(C)C)C(=O)N1CCC[C@H]1C(=O)N[C@@H](C)C(=O)N[C@@H](CC(C)C)C(=O)N[C@H](C(=O)N[C@@H](CO)C(=O)N[C@@H](Cc1c[nH]c2ccccc12)C(=O)N[C@H](C(=O)N[C@@H](CCCCN)C(=O)N[C@@H](CCCNC(=N)N)C(=O)N[C@@H](CCCCN)C(=O)N[C@@H](CCCNC(=N)N)C(=O)N[C@@H](CCC(N)=O)C(=O)N[C@@H](CCC(N)=O)C(N)=O)[C@@H](C)CC)[C@@H](C)CC)[C@@H](C)O)[C@@H](C)O)C(C)C)C(C)C [melittin] |  |  |  |  |  |  |  |  |  |  |  |  |  |  |  |  |  |  |  |  | cell viability (HEK293 cells; 4 μM): 41.95%; cell viability (HEK293 cells; 8 μM): 23.40%; cell viability (HEK293 cells; 16 μM): 0%
2 | FPRRWQWRRPF-NH2 [FP-PF] | 16 | 8 | 4 | 8 | 8 | 4 | 8 | 8 | 8 | 64 | 8 | 4 | 4 | 4 | 128 | 8 | 64 | 64 | 32 | 128 | MIC after Pepsin (E. coli ATCC25922 [2]; ATCC25922, 1 h): 16 µM; MIC (E. coli ATCC 25922): 4 µM; MIC (S. aureus ATCC 25923): 32 µM; MIC (S. aureus ATCC 29213; ATCC 29213, 18 h): 32 µM
3 | FWRRWQWRRWF-NH2 [FW-WF] | 8 | 4 | 16 | 8 | 8 | 4 | 4 | 4 | 2 | 8 | 4 | 4 | 4 | 4 | >128 | 16 | 16 | 8 | 128 | >128 | GM (geometric mean of MIC values from all microbial strains) [7]: 78.67 µM; MIC after Pepsin (E. coli ATCC25922 [2]; E. coli ATCC25922, peptide treated with 1 mg/mL pepsin, 1 h, 37 °C): >128 µM; MIC (E. coli ATCC 25922): 4 µM; survival rates of the cells (no PI signal) (E. coli ATCC25922 [8]; 1/2× MIC): 82.5%; survival rates of the cells (no PI signal) (E. coli ATCC25922 [8]; 1× MIC): 58.7%; MIC (S. aureus ATCC 25923): 16 µM; MIC (S. aureus ATCC 29213; S. aureus ATCC 29213, MHB, 37 °C, 18 h, peptides 0-256 μM, triplicate samples): >128 µM
